Reference: US20130065757A1, “CHEMICAL COMPOUNDS” (Syngenta Limited, priority 2010, published 2013)

How the values were obtained:
[1] = system: Setaria faberi (SETFA); experiment: Pre-emergence biological efficacy, glasshouse pot test; assay type: in vivo; conditions: 312 h, 1,000 g/ha, evaluated after 13 days, 100=total damage, 0=no damage, read-out: Percentage damage caused to weed species, pre-emergence, SETFA
Description: (§1) Seeds of Alopecurus myosuroides (ALOMY), Setaria faberi (SETFA), Echinochloa crus-galli (ECHCG), Solanum nigrum (SOLNI), Amaranthus retroflexus (AMARE) and Ipomoea hederaceae (IPOHE) were sown in standard soil in pots. After cultivation for one day under controlled conditions in a glasshouse (at 24/16° C., day/night; 14 hours light; 65% humidity), the plants were sprayed with an aqueous spray solution derived from the formulation of the technical active ingredient in acetone/water (50:50) solution containing 0.5% Tween 20 (polyoxyethylene sorbitan monolaurate, CAS RN 9005-64-5) to give a final dose of 1000 g/ha of test compound.
(§2) The test plants were then grown under controlled conditions in the glasshouse (at 24/16° C., day/night; 14 hours light; 65% humidity) and watered twice daily. After 13 days the test was evaluated (100=total damage to plant; 0=no damage to plant).

[2] = system: Amaranthus retroflexus (AMARE); experiment: as above; assay type: in vivo; conditions: 312 h, 1,000 g/ha, evaluated after 13 days, 100=total damage, 0=no damage, read-out: Percentage damage caused to weed species, pre-emergence, AMARE
Description: as §1, §2

[3] = system: Solanum nigrum (SOLNI); experiment: as above; assay type: in vivo; conditions: 312 h, 1,000 g/ha, evaluated after 13 days, 100=total damage, 0=no damage, read-out: Percentage damage caused to weed species, pre-emergence, SOLNI
Description: as §1, §2

[4] = system: Alopecurus myosuroides (ALOMY); experiment: as above; assay type: in vivo; conditions: 312 h, 1,000 g/ha, evaluated after 13 days, 100=total damage, 0=no damage, read-out: Percentage damage caused to weed species, pre-emergence, ALOMY
Description: as §1, §2

[5] = system: Echinochloa crus-galli (ECHCG); experiment: as above; assay type: in vivo; conditions: 312 h, 1,000 g/ha, evaluated after 13 days, 100=total damage, 0=no damage, read-out: Percentage damage caused to weed species, pre-emergence, ECHCG
Description: as §1, §2

[6] = system: Ipomoea hederaceae (IPOHE); experiment: as above; assay type: in vivo; conditions: 312 h, 1,000 g/ha, evaluated after 13 days, 100=total damage, 0=no damage, read-out: Percentage damage caused to weed species, pre-emergence, IPOHE
Description: as §1, §2

[7] = system: Maize cv GARLAND; experiment: Safening on corn, general crop injury; assay type: in vivo; conditions: 200 g ai/ha (with safener 200 + 200), sprayed at 3-leaf stage, 100% total damage, 0% no damage
Description: (§3) Maize seeds were sown into standard soil in pots and cultivated under controlled conditions in a glasshouse (at 24/18° C. day/night; 16 hours light; 65% humidity).
(§4) When the plants were at the vegetative stage of 3 leaves they were sprayed with an aqueous spray solution containing the components of the invention alone and where appropriate the herbicide safener (N-(2-methoxybenzoyl)-4-[(methylaminocarbonyl)amino]benzenesulfonamide). All the compounds used for the spray solution were present as an EC or SC formulation respectively. In addition a non-ionic surfactant (X-77 Spreader) was added to form a 0.2% v/v solution.
(§5) The spray solution was applied with a cabinet tracksprayer with a flat fan nozzle (Teejet 11002VS) and an application volume of 200 L/ha (at 2 bar).
(§6) The test plants were then grown on in a glasshouse under controlled conditions (at 24/18° C. day/night; 16 hours light; 65% humidity) and watered twice a day. After 7 and 17 days the test was evaluated for general crop injury (100% equals total damage to plant; 0% equals no damage to plant).

[8] = system: Maize cv CLAXXON; experiment: Safening on corn, general crop injury; assay type: in vivo; conditions: 200 g ai/ha (with safener 200 + 200), sprayed at 3-leaf stage, 100% total damage, 0% no damage
Description: as §3, §4, §5, §6

[9] = system: Setaria faberi (SETFA); experiment: Post-emergence biological efficacy, glasshouse pot test; assay type: in vivo; conditions: 312 h, 1,000 g/ha, post-emergence (sprayed after 8 days), evaluated after 13 days, 100=total damage, 0=no damage, read-out: Percentage damage caused to weed species, post-emergence, SETFA
Description: as §1, with “8 days” for “one day”
(§7) The test plants were then grown on under controlled conditions in a glasshouse (at 24/16° C., day/night; 14 hours light; 65% humidity) and watered twice daily. After 13 days the test was evaluated (100=total damage to plant; 0=no damage to plant).

[10] = system: Amaranthus retroflexus (AMARE); experiment: as above; assay type: in vivo; conditions: 312 h, 1,000 g/ha, post-emergence (sprayed after 8 days), evaluated after 13 days, 100=total damage, 0=no damage, read-out: Percentage damage caused to weed species, post-emergence, AMARE
Description: as §1, with “8 days” for “one day”
as §7

[11] = system: Solanum nigrum (SOLNI); experiment: as above; assay type: in vivo; conditions: 312 h, 1,000 g/ha, post-emergence (sprayed after 8 days), evaluated after 13 days, 100=total damage, 0=no damage, read-out: Percentage damage caused to weed species, post-emergence, SOLNI
Description: as §1, with “8 days” for “one day”
as §7

[12] = system: Alopecurus myosuroides (ALOMY); experiment: as above; assay type: in vivo; conditions: 312 h, 1,000 g/ha, post-emergence (sprayed after 8 days), evaluated after 13 days, 100=total damage, 0=no damage, read-out: Percentage damage caused to weed species, post-emergence, ALOMY
Description: as §1, with “8 days” for “one day”
as §7

[13] = system: Echinochloa crus-galli (ECHCG); experiment: as above; assay type: in vivo; conditions: 312 h, 1,000 g/ha, post-emergence (sprayed after 8 days), evaluated after 13 days, 100=total damage, 0=no damage, read-out: Percentage damage caused to weed species, post-emergence, ECHCG
Description: as §1, with “8 days” for “one day”
as §7

[14] = system: Ipomoea hederaceae (IPOHE); experiment: as above; assay type: in vivo; conditions: 312 h, 1,000 g/ha, post-emergence (sprayed after 8 days), evaluated after 13 days, 100=total damage, 0=no damage, read-out: Percentage damage caused to weed species, post-emergence, IPOHE
Description: as §1, with “8 days” for “one day”
as §7

Compound	melting point	pest or weed control at 1000 g/ha [1] [%]	pest or weed control at 1000 g/ha [2] [%]	pest or weed control at 1000 g/ha [3] [%]	pest or weed control at 1000 g/ha [4] [%]	pest or weed control at 1000 g/ha [5] [%]	pest or weed control at 1000 g/ha [6] [%]	Percentage damage caused to corn, Maize cv GARLAND, 7 days after application [7] [%]	Percentage damage caused to corn, Maize cv GARLAND, 17 days after application [7] [%]	Percentage damage caused to corn, Maize cv CLAXXON, 7 days after application [8] [%]	Percentage damage caused to corn, Maize cv CLAXXON, 17 days after application [8] [%]	pest or weed control at 1000 g/ha [9] [%]	pest or weed control at 1000 g/ha [10] [%]	pest or weed control at 1000 g/ha [11] [%]	pest or weed control at 1000 g/ha [12] [%]	pest or weed control at 1000 g/ha [13] [%]	pest or weed control at 1000 g/ha [14] [%]
C=Cc1c(N)cc(Cl)nc1C(=O)O [Compound 1-4, 4-amino-6-chloro-3-ethenyl-pyridine-2-carboxylic acid]	141 to 146 °C (dec.)	100	100	100	90	90	100	60	65	60	50	100	100	100	80	80	70
C=Cc1c(C(=O)O)nc(Cl)c(F)c1N [Compound 1-12, 4-Amino-6-chloro-3-ethenyl-5-fluoro-pyridine-2-carboxylic acid]		100	100	100	90	90	100	60	50	60	50	90	100	90	90	90	100
C=Cc1c(NC2CC2)cc(Cl)nc1C(=O)OC [Compound 23-4, 6-Chloro-4-cyclopropylamino-3-ethenyl-pyridine-2-carboxylic acid methyl ester]		80	100	100	70	70	80					80	100	100	60	30	70
C=Cc1c(C(=O)O)nc(Cl)c(Cl)c1N [Compound 1-20, 4-Amino-5,6-dichloro-3-ethenyl-pyridine-2-carboxylic acid]		90	100	100	90	90	100					90	100	90	90	90	100
COC(=O)c1nc(Cl)cc(N)c1C=C(C)C [Compound 2-165, 4-Amino-6-chloro-3-(2-methylprop-1-enyl)-pyridine-2-carboxylic acid methyl ester]		90	100	100	80	70	90					90	100	90	70	70	70
C=Cc1c(C(=O)OC)nc(Cl)c(Cl)c1N [Compound 2-20, 4-amino-5,6-dichloro-3-ethenyl-1-pyridine-2-carboxylic acid methyl ester]		90	100	100	90	90	100					90	100	100	90	90	100
C=Cc1c(N2CCCC2)cc(Cl)nc1C(=O)OC [Compound 31-4, 6-Chloro-3-ethenyl-4-pyrrolidin-1-yl-pyridine-2-carboxylic acid methyl ester]		50	100	90	60	10	80					50	90	90	20	20	70
C=C(C)Cc1c(N)cc(Cl)nc1C(=O)OC [Compound 2-8, 4-amino-6-chloro-3-(2-methyl-prop-2-enyl)-pyridine-2-carboxylic acid methyl ester]		10	40	80	10	0	80					10	70	80	10	0	50
